Laboratory results: BindingDB's records for doi:10.7270/Q2DF6PMF (Nmmlsc, 2007)

Molecular target: T1, N-formyl peptide receptor 2 (Homo sapiens, UniProt P25090)
T1 sequence (P25090 whole entry): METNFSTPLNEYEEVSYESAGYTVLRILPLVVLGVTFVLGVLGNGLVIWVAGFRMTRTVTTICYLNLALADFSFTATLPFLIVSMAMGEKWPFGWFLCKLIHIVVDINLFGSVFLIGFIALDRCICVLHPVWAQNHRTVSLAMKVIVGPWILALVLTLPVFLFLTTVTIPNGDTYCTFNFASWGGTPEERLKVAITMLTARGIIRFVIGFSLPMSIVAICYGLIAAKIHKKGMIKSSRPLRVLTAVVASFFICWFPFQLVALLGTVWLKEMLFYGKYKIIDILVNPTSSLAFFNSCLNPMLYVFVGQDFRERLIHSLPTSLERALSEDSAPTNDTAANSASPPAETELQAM
Test: FPRL1 binding inhibitor potency, dose response, cell-based, FPR counter-screen, fluorescent ligand (AID 520)
Conditions: not given

Row | IC50 | Ki | SMILES
1 | > 66.7 µM | > 40.3 µM | COCc1cc(C2C(C(=O)c3ccco3)C(=O)C(=O)N2CCOCCO)ccc1O (configuration not stated) [3-(furan-2-carbonyl)-4-hydroxy-1-[2-(2-hydroxyethoxy)ethyl]-2-[4-hydroxy-3-(methoxymethyl)phenyl]-2H-pyrrol-5-one]
2 | > 66.7 µM |  | CCC(SC1=Nc2ccccc2C2=NC(CC(C)C)C(=O)N12)C(=O)Nc1ccc2c(c1)OCO2 (configuration not stated) [N-(1,3-benzodioxol-5-yl)-2-[[2-(2-methylpropyl)-3-oxo-2H-imidazo[1,2-c]quinazolin-5-yl]sulfanyl]butanamide]
3 | > 66.7 µM |  | CCc1ccccc1NC(=O)C(C#N)Cc1cccnc1 (configuration not stated) [2-Cyano-N-(2-ethyl-phenyl)-2-pyridin-3-ylmethyl-acetamide]
4 | > 66.7 µM |  | COc1ccc(-c2cc(C(F)(F)F)nc(N3CCN(c4ccccc4)CC3)n2)cc1OC [4-(3,4-dimethoxyphenyl)-2-(4-phenyl-1-piperazinyl)-6-(trifluoromethyl)pyrimidine]
5 | > 66.7 µM |  | COc1ccccc1-n1c(CNC(=O)c2ccco2)nnc1SCC(=O)Nc1ccc(F)cc1 [SMR000021507]
6 | > 66.7 µM | > 40.3 µM | COc1ccc(OC)c(C2C(C(=O)c3ccccc3)C(=O)C(=O)N2Cc2ccco2)c1 (configuration not stated) [(4Z)-5-(2,5-dimethoxyphenyl)-1-(2-furanylmethyl)-4-[hydroxy(phenyl)methylidene]pyrrolidine-2,3-dione]
7 | > 66.7 µM | > 40.3 µM | COCCN1C(=O)C(=O)C(C(=O)c2ccco2)C1c1cccc(Oc2ccccc2)c1 (configuration not stated) [3-(furan-2-carbonyl)-4-hydroxy-1-(2-methoxyethyl)-2-(3-phenoxyphenyl)-2H-pyrrol-5-one]
8 | > 66.7 µM | > 40.3 µM | CCN(CC)c1ccc(C=NC(C#N)C(=N)C#N)cc1 (configuration not stated) [SMR000023871]
9 | > 66.7 µM | > 40.3 µM | O=C1C(=O)N(CCN2CCOCC2)C(c2ccccc2)C1C(=O)c1cccs1 (configuration not stated) [1-(2-morpholin-4-ylethyl)-4-oxidanyl-2-phenyl-3-thiophen-2-ylcarbonyl-2H-pyrrol-5-one]
10 | > 66.7 µM |  | Cc1ccc(NC(=O)C2CCCN2S(=O)(=O)c2cccc3cccnc23)cc1F (configuration not stated) [MLS000119092]
11 | > 66.7 µM | > 40.3 µM | C=CCOc1ccc(C2C(C(=O)c3ccco3)C(=O)C(=O)N2Cc2cccnc2)cc1 (configuration not stated) [3-(furan-2-carbonyl)-4-hydroxy-2-(4-prop-2-enoxyphenyl)-1-(pyridin-3-ylmethyl)-2H-pyrrol-5-one]
12 | > 66.7 µM | > 40.3 µM | COc1ccc(C2C(C(=O)c3ccco3)C(=O)C(=O)N2Cc2cccnc2)cc1OC (configuration not stated) [2-(3,4-dimethoxyphenyl)-3-(furan-2-carbonyl)-4-hydroxy-1-(pyridin-3-ylmethyl)-2H-pyrrol-5-one]
13 | > 66.7 µM | > 40.3 µM | Cc1cc(N2C(=O)C(=O)C(C(=O)c3ccc(F)cc3)C2c2cccc(Br)c2)no1 (configuration not stated) [(4E)-5-(3-bromophenyl)-4-[(4-fluorophenyl)-hydroxy-methylene]-1-(5-methylisoxazol-3-yl)pyrrolidine-2,3-quinone]
14 | > 66.7 µM |  | O=C(c1ccc(Cl)cc1)N(Cc1cccs1)C1CCS(=O)(=O)C1 (configuration not stated) [4-chloro-N-(1,1-diketothiolan-3-yl)-N-(2-thenyl)benzamide]
15 | > 66.7 µM |  | CCC(NC(=O)Nc1cc(OC)c(OC)c(OC)c1)(C(F)(F)F)C(F)(F)F [1-(3,4,5-trimethoxyphenyl)-3-[1,1,1-tris(fluoranyl)-2-(trifluoromethyl)butan-2-yl]urea]
16 | > 66.7 µM |  | CCOC(=O)c1c(-c2ccc(-c3ccccc3)cc2)csc1NC(=O)C1C2CCC(O2)C1C(=O)O (configuration not stated)
17 | > 66.7 µM | > 40.3 µM | O=C1C(=O)N(CCCN2CCOCC2)C(c2ccccn2)C1C(=O)c1cc2ccccc2o1 (configuration not stated) [3-(1-benzofuran-2-carbonyl)-4-hydroxy-1-(3-morpholin-4-ylpropyl)-2-pyridin-2-yl-2H-pyrrol-5-one]
18 | > 66.7 µM |  | C=CCn1c(NC(=O)c2ccccc2)c(C#N)c2nc3ccccc3nc21 [MLS000057035]
19 | > 66.7 µM | > 40.3 µM | O=C1C(=O)N(Cc2ccco2)C(c2ccccc2)C1C(=O)c1cccs1 (configuration not stated) [1-(2-furanylmethyl)-4-hydroxy-3-[oxo(thiophen-2-yl)methyl]-2-phenyl-2H-pyrrol-5-one]
20 | > 66.7 µM |  | COc1ccccc1Oc1c(C)oc2cc(OC(=O)c3ccco3)ccc2c1=O [2-furancarboxylic acid [3-(2-methoxyphenoxy)-2-methyl-4-oxo-1-benzopyran-7-yl] ester]
21 | > 66.7 µM |  | COc1ccc2cnn(-c3ccccc3)c(=O)c2c1OC [7,8-dimethoxy-2-phenyl-1(2H)-phthalazinone]
22 | > 66.7 µM |  | COc1ccc(-n2c(Cc3cccn3C)nnc2SCC(=O)Nc2ccc(Cl)cc2)cc1 [MLS000118695]
23 | > 66.7 µM |  | O=C(NCCCN1CCN(c2ccc(F)cc2)CC1)c1cccc(N2CCCC2=O)c1 [MLS000046779]

Row | IC50 | Ki | SMILES
24 | > 66.7 µM | > 40.3 µM | COc1cc(C2C(C(=O)c3ccc(C)o3)C(=O)C(=O)N2Cc2cccnc2)ccc1O (configuration not stated) [2-(3-methoxy-4-oxidanyl-phenyl)-3-(5-methylfuran-2-yl)carbonyl-4-oxidanyl-1-(pyridin-3-ylmethyl)-2H-pyrrol-5-one]
25 | > 66.7 µM |  | Cc1ccc(NC(=O)C2C(=O)N(CCO)C3(C)CC2c2ccccc2O3)cc1 (configuration not stated) [SMR000015827]
26 | > 66.7 µM | > 40.3 µM | COc1cc(C2C(C(=O)c3cccs3)C(=O)C(=O)N2Cc2ccco2)cc(OC)c1OC (configuration not stated) [1-(2-furanylmethyl)-4-hydroxy-3-[oxo(thiophen-2-yl)methyl]-2-(3,4,5-trimethoxyphenyl)-2H-pyrrol-5-one]
27 | > 66.7 µM |  | COc1ccc2nc(Nc3nc(C)c(C(C)=O)s3)sc2c1 [1-[2-[(6-methoxy-1,3-benzothiazol-2-yl)amino]-4-methyl-1,3-thiazol-5-yl]ethanone]
28 | > 66.7 µM |  | N[C@@H](Cc1ccc(O)c(I)c1)C(=O)O
29 | > 66.7 µM |  | Cc1c(C(=O)NC2CCCc3ccccc32)oc2ccc(S(=O)(=O)N3CCOCC3)cc12 (configuration not stated) [3-methyl-5-(4-morpholinylsulfonyl)-N-(1,2,3,4-tetrahydronaphthalen-1-yl)-2-benzofurancarboxamide]
30 | > 66.7 µM | > 40.3 µM | Cc1ccc(C(=O)C2C(=O)C(=O)N(CCN3CCOCC3)C2c2cccnc2)cc1 (configuration not stated) [(4Z)-4-[(4-methylphenyl)-oxidanyl-methylidene]-1-(2-morpholin-4-ylethyl)-5-pyridin-3-yl-pyrrolidine-2,3-dione]
31 | > 66.7 µM |  | CCN(C(=O)Cc1c(C(=O)O)[nH]c2ccccc12)c1cc(OC)ccc1OC
32 | > 66.7 µM | > 40.3 µM | O=C1C(=O)N(Cc2ccccc2)C(c2ccco2)C1C(=O)c1ccco1 (configuration not stated) [1-Benzyl-4-(furan-2-carbonyl)-5-furan-2-yl-3-hydroxy-1,5-dihydro-pyrrol-2-one]
33 | > 66.7 µM | > 40.3 µM | COCCCN1C(=O)C(=O)C(C(=O)c2ccco2)C1c1cccc(Br)c1 (configuration not stated) [2-(3-bromophenyl)-3-(furan-2-carbonyl)-4-hydroxy-1-(3-methoxypropyl)-2H-pyrrol-5-one]
34 | > 66.7 µM | > 40.3 µM | COc1ccc(OC)c(C2C(C(=O)c3cc4ccccc4o3)C(=O)C(=O)N2c2cc(C)on2)c1 (configuration not stated) [3-(1-benzofuran-2-carbonyl)-2-(2,5-dimethoxyphenyl)-4-hydroxy-1-(5-methyl-1,2-oxazol-3-yl)-2H-pyrrol-5-one]
35 | > 66.7 µM |  | Cc1ccc(F)c(NC(=O)C2CCCCC2C(=O)O)c1 (configuration not stated) [2-[(2-fluoranyl-5-methyl-phenyl)carbamoyl]cyclohexane-1-carboxylic acid]
36 | > 66.7 µM | > 40.3 µM | CCOc1ccc(C2C(C(=O)c3ccco3)C(=O)C(=O)N2CCCn2ccnc2)cc1 (configuration not stated) [2-(4-ethoxyphenyl)-3-(furan-2-carbonyl)-4-hydroxy-1-(3-imidazol-1-ylpropyl)-2H-pyrrol-5-one]
37 | > 66.7 µM |  | O=C(NCc1cccnc1)C1c2ccccc2C(=O)N1C1CCCCCCC1 (configuration not stated) [2-cyclooctyl-3-keto-N-(3-pyridylmethyl)isoindoline-1-carboxamide]
38 | > 66.7 µM | > 40.3 µM | COCCCN1C(=O)C(=O)C(C(=O)c2ccc(OC)cc2C)C1c1cccnc1 (configuration not stated) [(4E)-4-[(4-methoxy-2-methyl-phenyl)-oxidanyl-methylidene]-1-(3-methoxypropyl)-5-pyridin-3-yl-pyrrolidine-2,3-dione]
39 | > 66.7 µM |  | O=C(NCCN1CCOCC1)NC1(C(F)(F)F)Oc2ccc(Cl)cc2O1 (configuration not stated)
40 | > 66.7 µM |  | O=C(O)C1CCCCC1C(=O)Nc1ccccc1Cl (configuration not stated) [2-[(2-chloroanilino)-oxomethyl]-1-cyclohexanecarboxylic acid]
41 | > 66.7 µM |  | Clc1ccc(C2CC(c3cccs3)n3ncnc3N2)cc1Cl (configuration not stated) [5-(3,4-dichlorophenyl)-7-(2-thienyl)-1,5,6,7-tetrahydro-[1,2,4]triazolo[1,5-a]pyrimidine]
42 | > 66.7 µM |  | CCOC(=O)c1c(C)[nH]c(C=Nc2ccccc2)c1O [(5Z)-5-(anilinomethylidene)-2-methyl-4-oxo-1H-pyrrole-3-carboxylic acid ethyl ester]
43 | > 66.7 µM |  | CCOC(=O)c1cc(NC(=O)C2C3CCC(O3)C2C(=O)O)cc(C(=O)OCC)c1 (configuration not stated) [MLS000521500]
44 | > 66.7 µM | > 40.3 µM | CCOc1ccc(C(=O)C2C(=O)C(=O)N(CC3CCCO3)C2c2ccc(C)o2)cc1 (configuration not stated) [(4Z)-4-[(4-ethoxyphenyl)-hydroxymethylidene]-5-(5-methyl-2-furanyl)-1-(2-oxolanylmethyl)pyrrolidine-2,3-dione]
45 | > 66.7 µM |  | CCOC(=O)Cc1cc(=O)n2[nH]c(C)c(-c3ccccc3)c2n1

Row | SMILES | IC50 | Ki
46 | CC1=C(C(=O)OC(C)C)[C@]2(C(=O)N(CC(N)=O)c3ccccc32)C(C#N)C(=N)O1 (stereo partly drawn) [(3R)-6'-amino-1-(2-amino-2-keto-ethyl)-5'-cyano-2-keto-2'-methyl-spiro[indoline-3,4'-pyran]-3'-carboxylic acid isopropyl ester] | > 66.7 µM | > 40.3 µM

Same assay, conditions: inactive by the depositor's call

Row | IC50 | SMILES
47 | 45 µM | COc1ccc(-c2cn3cccnc3n2)cc1NC(=O)CC(C)C [MLS000045943]
